Tests used:
Assay type in all cases: in vivo, BALB/c mice
[1] = system: anti-OVA-specific IgG1 and IgG2a subclass antibody production; experiment: Evaluation test of adjuvant activity (overall conclusion from anti-OVA IgG1 and IgG2a production); conditions: compound 0.256 μmol in 5% αCD-added saline with OVA 5 μg, dorsal-subcutaneous
Method: 8-Week-old female BALB/c mice were divided into groups (N=6), and each group was primarily immunized by dorsal-subcutaneous administration of (1) ovalbumin (OVA) (5 μg) dissolved in saline as an antigen (OVA single administration group), (2) OVA 5 μg and Addavax™ (mixed with saline at 1:1) dissolved in saline (Addavax™ administration group) as positive control adjuvant, (3) OVA 5 μg and SZ137 0.256 μmol dissolved or dispersed in 5% α-cyclodextrin (hereinafter to be simply referred to as αCD)-added saline (SZ137 administration group), (4) OVA (5 μg) and SZ138 (0.256 μmol) dissolved or dispersed in 5% αCD-added saline (SZ138 administration group), (5) OVA (5 μg) and SZ142 (0.256 μmol) dissolved or dispersed in 5% αCD-added saline (SZ142 administration group), (6) OVA (5 μg) and SZ144 (0.256 μmol) dissolved or dispersed in 5% αCD-added saline (SZ144 administration group), (7) OVA (5 μg) and SZ145 (0.256 μmol) dissolved or dispersed in 5% αCD-added saline (SZ145 administration group), (8) OVA (5 μg) and SZ146 (0.256 μmol) dissolved or dispersed in 5% αCD-added saline (SZ146 administration group), (9) OVA (5 μg) and SZ147 (0.256 μmol) dissolved or dispersed in 5% αCD-added saline (SZ147 administration group), (10) OVA (5 μg) and SZ148 (0.256 μmol) dissolved or dispersed in 5% αCD-added saline (SZ148 administration group), each per mouse. Two week later, the secondary immunization was carried out by dorsal-subcutaneous administration of solutions or dispersions similar to those of the above-mentioned (1)-(10) again. […]
To a 96 well plate was added 5 μg/ml OVA at 100 µl/well, and the mixture was incubated at 4° C. overnight. After incubation, the mixture was washed three times with 200 μl of PBS-T (PBS (phosphate buffered saline)+0.05% (v/v) Tween 20) per well, and blocked with 100 μl of 5% FCS (fetal calf serum)/PBS solution per well at room temperature for 1-2 hr. Thereafter, the mixture was washed three times with PBS-T (200 μl/well), a diluted serum sample (100 l/well) or the same amount of 5% FCS/PBS solution as a control was added, and the mixture was incubated at 37° C. for 1 hr. To calculate concentration of the antibody, the standard of an anti-OVA-specific IgG1 subclass antibody diluted with 2% FCS/PBS solution was added at 100 ng/ml, 50 ng/ml, 25 ng/ml, 12.5 ng/ml, 6.25 ng/ml, 3.125 ng/ml, 1.56 ng/ml, 0.781 ng/ml, 0.391 ng/ml, 0.195 ng/ml, 0.098 ng/ml, 0 ng/ml, per 1 well. When an anti-OVA-specific IgG2a subclass antibody was measured, the standard of an anti-OVA-specific IgG2a subclass antibody was added at 50 ng/ml, 25 ng/ml, 12.5 ng/ml, 6.25 ng/ml, 3.125 ng/ml, 1.56 ng/ml, 0.781 ng/ml, 0.391 ng/ml, 0.195 ng/ml, 0.098 ng/ml, 0.049 ng/ml, 0 ng/ml, per 1 well. Thereafter, similar to the samples, the mixture was washed five times with PBS-T (200 μl/well), a diluted biotinylated anti-mouse IgG1 antibody and IgG2a antibody were added (100 μl/well), and the mixture was incubated at 37° C. for 45 min. Thereafter, the mixture was washed five times with PBS-T (200 μl/well), a diluted anti-biotin-HRP antibody was added (100 μl/well), and the mixture was incubated at 37° C. for another 30 min. Thereafter, the mixture was washed five times with PBS-T (200 μl/well), TMB substrate solution was added (100 μl/well), and the mixture was incubated at room temperature for 10-15 min. Thereafter, a reaction quenching liquid (2N sulfuric acid solution) was added (50 l/well) to discontinue a color developing reaction, and the absorbance (OD Value=450 nm) was measured by a microplate reader. A standard curve was drawn from the measured OD values, and the concentration was calculated. […]

[2] = system: anti-OVA-specific IgG1 subclass antibody; experiment: Adjuvant activity test: anti-OVA-specific IgG1 subclass antibody in serum of OVA-immunized mice (ELISA); conditions: after primary immunization, serum 2 weeks later; OVA 5 μg + compound 0.256 μmol in 5% αCD-added saline (Addavax mixed with saline at 1:1), dorsal-subcutaneous; compared to OVA single administration group
[3] = system: anti-OVA-specific IgG2a subclass antibody; experiment: Adjuvant activity test: anti-OVA-specific IgG2a subclass antibody in serum of OVA-immunized mice (ELISA); conditions: after primary immunization, serum 2 weeks later; OVA 5 μg + compound 0.256 μmol in 5% αCD-added saline (Addavax mixed with saline at 1:1), dorsal-subcutaneous; compared to OVA single administration group
[4] = conclusion from IgG1/IgG2a after primary immunization

SMILES	adjuvant activity [1, 4]	anti-OVA-specific IgG1 subclass antibody production [2]	anti-OVA-specific IgG2a subclass antibody production [3]	adjuvant activity ([1]; conclusion from IgG1/IgG2a after secondary immunization)
CCCCCCCCCCCCCCCCCCCCCC(=O)N[C@@H](CSSC[C@H](NC(=O)CCCCCCCCCCCCCCCCCCCCC)C(=O)NCCCCCCCCCCCC)C(=O)NCCCCCCCCCCCC [SZ173, N-[(1R)-1-[[[(2R)-2-(docosanoylamino)-3-(dodecylamino)-3-oxo-propyl]disulfanyl]methyl]-2-(dodecylamino)-2-oxo-ethyl]docosanamide]	has an adjuvant activity	showed a tendency to increase	significantly increased	–
CCCCCCCCCCCCNC(=O)[C@H](CCCNC(=N)N)N(Cc1ccccc1)Cc1ccccc1 [SZ174, (2S)-2-(Dibenzylamino)-N-dodecyl-5-guanidino-pentanamide]	have an adjuvant activity	tended to increase	significantly increased	–
CCCCCCCCCCCCCCCC(=O)NCCCCCNC(=N)N [SZ175, N-(5-guanidinopentyl)hexadecanamide]	have an adjuvant activity	tended to increase	significantly increased	–
CCCCCCCCCCCCCCCCCCCCCC(=O)NCCCCCNC(=N)N.Cl [SZ176, N-(5-guanidinopentyl)docosanamide]	have an adjuvant activity	tended to increase	significantly increased	–
CCCCCCCCCCCCNC(=O)[C@H](CCCNC(=N)N)NC(=O)C(=O)CCCCCC.Cl [SZ177, N-[(1S)-1-(dodecylcarbamoyl)-4-guanidino-butyl]-2-oxo-octanamide]	have an adjuvant activity	tended to increase	significantly increased	–
CCCCCCCCCCCCCCCCCCOC(=O)N[C@@H](CCCNC(=N)N)C(=O)NCCCCCCCCCCCC.Cl [SZ186, octadecyl N-[(1S)-1-(dodecylcarbamoyl)-4-guanidino-butyl]carbamate hydrochloride]	have an adjuvant activity	significant enhancement	significant enhancement	have an adjuvant activity

Source: patent US20180311342A1, “IMMUNOSTIMULATING AGENT” (AJINOMOTO CO., INC., priority 2017, published 2018)
